Our source for the IC50 and EC50 values is patent US20220213092A1, “BICYCLIC PYRAZOLE BRUTON'S TYROSINE KINASE INHIBITORS” (AbbVie Inc., priority 2020, published 2022).

For one assay, the target named is T1, BTK (Homo sapiens, UniProt Q06187).
T1 construct: purchased Nanosyn, Santa Clara, Calif; host or cells: 293HEK
Put plainly: BTK kinase electrophoretic mobility shift assay (MSA). Conditions: 50 μM ATP, 0.5 nM BTK enzyme (Nanosyn-293HEK, WT), 3 hours at 25° C.; all examples except 50, 51, 62 and 63; read-out: BTK IC50. The format is biochemical. How it is done: Kinase activity, unless otherwise indicated, was measured in vitro using an electrophoretic mobility shift assay (MSA). The phosphorylation of a peptide substrate by BTK and other kinases was measured. The kinase reactions were assembled in a total volume of 25 μL per well in 384 well plates. The following was added to each well: compound buffer (or control); enzyme buffer; and substrate buffer, as further described below.
The terminated reactions were analyzed using a 12 channel LABCHIP® 3000 microfluidic detection instrument (available from Caliper Life Sciences, Waltham, Mass.). […] Change in the relative fluorescence intensity of the substrate and product peaks was the parameter measured, reflecting enzyme activity. In the presence of an inhibitor, the ratio between product and substrate was altered. The signal of the product decreased, while the signal of the substrate increased. Capillary electrophoregrams (RDA acquisition files) were analyzed using HTS Well Analyzer software (available from Caliper Life Sciences, Waltham, Mass.).
Activity in each sample was determined as the product to sum ratio (PSR): P/(S+P), where P was the peak height of the product peptide and S was the peak height of the substrate peptide. For each compound, enzyme activity was measured at various concentrations (12 concentrations of compound spaced by 3× dilution intervals). Negative control samples (00 inhibition in the absence of inhibitor) and positive control samples (10000 inhibition, in the presence of 20 mM EDTA) were assembled in replicates of four and were used to calculate 00 inhibition values for each inhibitor at each concentration. Percent inhibition (Pinh) was determined using following equation: Pinh=(PSR0%−PSRinh)/(PSR0%−PSR100%)*100, where PSRinh was the product sum ratio in the presence of inhibitor, PSR0% was the average product sum ratio in the absence of inhibitor and PSR100% was the average product sum ratio in 100%−inhibition control samples.
The IC50 values of inhibitors were determined by 4 parameter sigmoidal dose response model fitting of the inhibition curves (Pinh versus inhibitor concentration) using XLfit® 4 software (available from IDBS, Boston, Mass.).

The target in assay [1] is T2, Phosphorylation of Y223 of BTK (Homo sapiens, UniProt Q06187).
T2 construct: host or cells: healthy human whole blood, 3 donors
T2 sequence (Q06187 whole entry): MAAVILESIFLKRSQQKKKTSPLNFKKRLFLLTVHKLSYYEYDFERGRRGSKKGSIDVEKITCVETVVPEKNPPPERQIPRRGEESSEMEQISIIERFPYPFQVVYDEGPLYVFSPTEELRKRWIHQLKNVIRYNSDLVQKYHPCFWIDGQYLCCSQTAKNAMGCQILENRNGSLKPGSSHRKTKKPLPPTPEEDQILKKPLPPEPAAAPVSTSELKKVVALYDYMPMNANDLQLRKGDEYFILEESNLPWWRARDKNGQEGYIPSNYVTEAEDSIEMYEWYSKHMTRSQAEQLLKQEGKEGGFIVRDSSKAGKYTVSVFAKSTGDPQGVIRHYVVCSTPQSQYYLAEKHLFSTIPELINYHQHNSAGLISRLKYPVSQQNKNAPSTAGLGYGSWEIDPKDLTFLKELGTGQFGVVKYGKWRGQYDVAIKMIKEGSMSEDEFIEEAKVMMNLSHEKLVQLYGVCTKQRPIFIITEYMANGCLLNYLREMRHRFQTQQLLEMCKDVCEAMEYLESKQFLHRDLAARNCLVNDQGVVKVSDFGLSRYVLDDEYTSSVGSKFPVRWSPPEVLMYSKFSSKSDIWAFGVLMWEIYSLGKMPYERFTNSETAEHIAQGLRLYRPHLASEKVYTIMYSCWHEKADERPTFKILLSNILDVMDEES
Put plainly: Whole blood compound screening, phosphorylation of Y223 site of BTK (MSD assay). Particulars: healthy human whole blood, 2 hours at 37° C., 3 separate donors; read-out: WB BTK-pY223 EC50. The class given is cell-based. How it is done:
Healthy human whole blood (WB) was collected from […]™ Technologies or […]® in sodium heparinized tubes. Whole blood was stored at ambient temperature to avoid coagulation. Each compound was tested in 3 separate donors. Compound stock solutions (10 mM) were used to generate dose titration (8 concentrations, starting concentration 10 μM, 1:4 dilution) in appropriate volume of dimethyl sulfoxide (0.2%). Whole blood was incubated with compounds in 96-well plates for 2 hours in tissue culture incubators at 37° C. under a 5% CO2 atmosphere. The whole blood was lysed in equal volume of lysis buffer (Cell Signaling Technology®, Danvers, Mass.) containing complete protease inhibitor tablet, PhosSTOP™ tablet, sodium orthovanadate and sodium fluoride and phenylmethanesulfonyl fluoride solution. The lysed whole blood was then frozen at −80° C. for overnight.
Phosphorylation of Y223 of BTK was measured using an MSD assay (Meso Scale Diagnostics, LLC, Rockville, Md.). The thawed lysed whole blood was incubated with the capturing antibody rabbit anti-human BTK (D3H5) (Cell Signaling Technology, Danvers, Mass.) at 4° C. overnight. After washing out the unbound samples, the detection antibody biotinylated rabbit anti-pY223-BTK(D9T6H) (Cell Signaling Technology®, Danvers, Mass.) was added to the plates. After washing out the unbound antibodies, SULFO-TAG Streptavidin (Meso Scale Diagnostics, LLC, Rockville, Md.) was used for detection on Meso Sector S600 (Meso Scale Diagnostics, LLC, Rockville, Md.).
The EC50 values were determined using software from Dotmatics. The activity of exemplary compounds is illustrated below.

T1 sequence (Q06187 whole entry): as above

For `C=CC(=O)N1CCC(C2CCNc3c2nn(-c2ccc(Oc4ccccc4)cc2)c3C(N)=O)CC1` (racemic) [Example 1, Rac-2-(4-phenoxyphenyl)-7-[1-(prop-2-enoyl)piperidin-4-yl]-4,5,6,7-tetrahydro-2H-pyrazolo[4,3-b]pyridine-3-carboxamide], the half-inhibitory concentration (IC50) (usually the midpoint of a concentration-inhibition curve) on BTK is 0.426 nM. For the same compound, the EC50 (as a rule, the midpoint of the concentration-response curve) in assay [1] amounted to 42.2 nM.

As for `C=CC(=O)N1C[C@@H]2CN(C3CCNc4c3nn(-c3ccc(Oc5ccccc5)cc3)c4C(N)=O)C[C@@H]2C1` (mixture of isomers) [Example 66, 2-(4-phenoxyphenyl)-7-[rac-(3aR,6aS)-5-(prop-2-enoyl)hexahydropyrrolo[3,4-c]pyrrol-2(1H)-yl]-4,5,6,7-tetrahydro-2H-pyrazolo[4,3-b]pyridine-3-carboxamide], the concentration for half-maximal inhibition (IC50) on BTK amounted to 65.7 nM. The EC50 in assay [1] turned out to be 1820 nM.

For the compound `C=CC(=O)N1CCN(C2CCNc3c2nn(-c2ccc(Oc4ccccc4)cc2)c3C(N)=O)CC1` (centres unmarked) [Example 3, 2-(4-phenoxyphenyl)-7-[4-(prop-2-enoyl)piperazin-1-yl]-4,5,6,7-tetrahydro-2H-pyrazolo[4,3-b]pyridine-3-carboxamide], on BTK, the IC50 came to 0.993 nM. The EC50 in assay [1] came out at 40.7 nM.

For `C=CC(=O)N1CCC([C@H]2CCNc3c2nn(-c2ccc(Oc4ccccc4)cc2)c3C(N)=O)CC1` [Example 4, (7R)-2-(4-phenoxyphenyl)-7-[1-(prop-2-enoyl)piperidin-4-yl]-4,5,6,7-tetrahydro-2H-pyrazolo[4,3-b]pyridine-3-carboxamide], the concentration for half-maximal inhibition (IC50) on BTK worked out at 0.331 nM. The EC50 in assay [1] was 35.7 nM.

As to `C=CC(=O)N1CCC(C2CCNc3c2nn(-c2ccc(Oc4cccc(F)c4)cc2)c3C(N)=O)CC1` (centres unmarked) [Example 12, 2-[4-(3-fluorophenoxy)phenyl]-7-[1-(prop-2-enoyl)piperidin-4-yl]-4,5,6,7-tetrahydro-2H-pyrazolo[4,3-b]pyridine-3-carboxamide], at BTK, the IC50 amounted to 0.495 nM. The half-maximal effective concentration (EC50) in assay [1] was determined as 32.9 nM.

Consider `C=CC(=O)N1CCC(C2CCNc3c2nn(-c2ccc(Oc4cccc(OC)c4)cc2)c3C(N)=O)CC1` (centres unmarked) [Example 15, 2-[4-(3-methoxyphenoxy)phenyl]-7-[1-(prop-2-enoyl)piperidin-4-yl]-4,5,6,7-tetrahydro-2H-pyrazolo[4,3-b]pyridine-3-carboxamide], for which the IC50 at BTK was determined as 0.684 nM. Besides, in assay [1], the EC50 is 55.6 nM.

On to `C=CC(=O)N1CCC(N2CCNc3c2nn(-c2ccc(Oc4ccccc4)cc2)c3C(N)=O)CC1` [Example 16, 2-(4-phenoxyphenyl)-7-[1-(prop-2-enoyl)piperidin-4-yl]-4,5,6,7-tetrahydro-2H-pyrazolo[3,4-b]pyrazine-3-carboxamide], for which the IC50 at BTK was 0.592 nM. For the same compound, the concentration giving a half-maximal response (EC50) in assay [1] is 18.3 nM.

Turning to `C=CC(=O)N1CC(N2CCNc3c2nn(-c2ccc(Oc4ccccc4)cc2)c3C(N)=O)C1` [Example 22, 2-(4-phenoxyphenyl)-7-[1-(prop-2-enoyl)azetidin-3-yl]-4,5,6,7-tetrahydro-2H-pyrazolo[3,4-b]pyrazine-3-carboxamide], the IC50 on BTK amounted to 1.11 nM. In addition, in assay [1], the EC50 worked out at 38.2 nM.

With `C=CC(=O)N1CCC(C2CCNc3c2nn(-c2ccc(Oc4cccc(C)c4)cc2)c3C(N)=O)CC1` (centres unmarked) [Example 24, 2-[4-(3-methylphenoxy)phenyl]-7-[1-(prop-2-enoyl)piperidin-4-yl]-4,5,6,7-tetrahydro-2H-pyrazolo[4,3-b]pyridine-3-carboxamide], the IC50 at BTK worked out at 0.735 nM. Besides, the EC50 in assay [1] was 92.9 nM.

As for `C=CC(=O)N1CCC([C@H]2CCNc3c2nn(-c2ccc(Oc4ccc(F)cc4F)cc2)c3C(N)=O)CC1` [Example 30, (7R)-2-[4-(2,4-difluorophenoxy)phenyl]-7-[1-(prop-2-enoyl)piperidin-4-yl]-4,5,6,7-tetrahydro-2H-pyrazolo[4,3-b]pyridine-3-carboxamide], the half-maximal inhibitory concentration (IC50) on BTK was determined as 1.05 nM. In assay [1], the concentration for a half-maximal effect (EC50) was found to be 45.3 nM.

Take `C=CC(=O)N1[C@@H]2CC[C@H]1CN(C1CCNc3c1nn(-c1ccc(Oc4ccccc4)cc1)c3C(N)=O)C2` (stereo partly drawn) [Example 35, 2-(4-phenoxyphenyl)-7-[(1R,5S)-8-(prop-2-enoyl)-3,8-diazabicyclo[3.2.1]octan-3-yl]-4,5,6,7-tetrahydro-2H-pyrazolo[4,3-b]pyridine-3-carboxamide]: at BTK, the half-maximal inhibitory concentration (IC50) was 0.884 nM. In assay [1], the EC50 was found to be 128 nM.

In the case of `C=CC(=O)N1CCN(C2CCNc3c2nn(-c2ccc(Oc4ccccc4)cc2)c3C(N)=O)C[C@@H]1C` (stereo partly drawn) [Example 43, 7-[(3S)-3-methyl-4-(prop-2-enoyl)piperazin-1-yl]-2-(4-phenoxyphenyl)-4,5,6,7-tetrahydro-2H-pyrazolo[4,3-b]pyridine-3-carboxamide], the IC50 at BTK is 1.17 nM. The EC50 in assay [1] stood at 62.5 nM.

As to `C=CC(=O)N1CCN([C@@H]2CCNc3c2nn(-c2ccc(Oc4ccc(O)cc4)cc2)c3C(N)=O)CC1` [Example 44, (7R)-2-[4-(4-hydroxyphenoxy)phenyl]-7-[4-(prop-2-enoyl)piperazin-1-yl]-4,5,6,7-tetrahydro-2H-pyrazolo[4,3-b]pyridine-3-carboxamide], on BTK, the IC50 is 15.4 nM. Further, the EC50 in assay [1] turned out to be 158 nM.

With `C=CC(=O)N1CCN(C2CCNc3c2nn(-c2ccc(Oc4ccccc4)cc2)c3C(N)=O)CC12CC2` (centres unmarked) [Example 53, 2-(4-phenoxyphenyl)-7-[4-(prop-2-enoyl)-4,7-diazaspiro[2.5]octan-7-yl]-4,5,6,7-tetrahydro-2H-pyrazolo[4,3-b]pyridine-3-carboxamide], the IC50 on BTK amounted to 1.2 nM. The EC50 in assay [1] is 71.8 nM.

Take `C=CC(=O)N1CCN(C2CCNc3c2nn(-c2ccc(Oc4ccccc4C(F)(F)F)cc2)c3C(N)=O)CC1` (centres unmarked) [Example 54, 7-[4-(prop-2-enoyl)piperazin-1-yl]-2-{4-[2-(trifluoromethyl)phenoxy]phenyl}-4,5,6,7-tetrahydro-2H-pyrazolo[4,3-b]pyridine-3-carboxamide]: the concentration for half-maximal inhibition (IC50) at BTK stood at 1.19 nM. For the same compound, the EC50 in assay [1] is 76.7 nM.

With `C=CC(=O)N1CCN(C2CCNc3c2nn(-c2ccc(Oc4cccc(F)c4)cc2)c3C(N)=O)CC1` (centres unmarked) [Example 57, 2-[4-(3-fluorophenoxy)phenyl]-7-[4-(prop-2-enoyl)piperazin-1-yl]-4,5,6,7-tetrahydro-2H-pyrazolo[4,3-b]pyridine-3-carboxamide], the IC50 at BTK came out at 1.76 nM. The EC50 in assay [1] is 85.9 nM.

Take `C=CC(=O)N1CCN([C@@H]2CCNc3c2nn(-c2ccc(Oc4ccccc4C(F)(F)F)cc2)c3C(N)=O)CC1` [Example 60, (7R)-7-[4-(prop-2-enoyl)piperazin-1-yl]-2-{4-[2-(trifluoromethyl)phenoxy]phenyl}-4,5,6,7-tetrahydro-2H-pyrazolo[4,3-b]pyridine-3-carboxamide]: the IC50 at BTK amounted to 1.42 nM. In addition, the EC50 in assay [1] amounted to 83.4 nM.

For `C=CC(=O)N1CCN([C@@H]2CCNc3c2nn(-c2ccc(Oc4cccc(C#N)c4)cc2)c3C(N)=O)CC1` [Example 64, (7R)-2-[4-(3-cyanophenoxy)phenyl]-7-[4-(prop-2-enoyl)piperazin-1-yl]-4,5,6,7-tetrahydro-2H-pyrazolo[4,3-b]pyridine-3-carboxamide], the IC50 at BTK turned out to be 5.58 nM. Besides, the EC50 in assay [1] is 75 nM.

As for `C=CC(=O)N1CCN([C@@H]2CCNc3c2nn(-c2ccc(Oc4cccc(C(F)(F)F)c4)cc2)c3C(N)=O)CC1` [Example 65, (7R)-7-[4-(prop-2-enoyl)piperazin-1-yl]-2-{4-[3-(trifluoromethyl)phenoxy]phenyl}-4,5,6,7-tetrahydro-2H-pyrazolo[4,3-b]pyridine-3-carboxamide], the IC50 on BTK was found to be 0.953 nM. Further, the EC50 in assay [1] came to 34.2 nM.
